The values that follow come from publication PMC9030254, “Target Hopping from Protein Kinases to PXR: Identification of Small-Molecule Protein Kinase Inhibitors as Selective Modulators of Pregnane X Receptor from TüKIC Library” (Cells, 2022).

What all share (assay): Kinase profiling
Holding throughout (type): biochemical

Assay [1] has as its target T1, PKCepsilon (Homo sapiens, UniProt Q02156).
T1 construct: purchased ProQinase (Freiburg, Germany)
T1 sequence (Q02156 1-737): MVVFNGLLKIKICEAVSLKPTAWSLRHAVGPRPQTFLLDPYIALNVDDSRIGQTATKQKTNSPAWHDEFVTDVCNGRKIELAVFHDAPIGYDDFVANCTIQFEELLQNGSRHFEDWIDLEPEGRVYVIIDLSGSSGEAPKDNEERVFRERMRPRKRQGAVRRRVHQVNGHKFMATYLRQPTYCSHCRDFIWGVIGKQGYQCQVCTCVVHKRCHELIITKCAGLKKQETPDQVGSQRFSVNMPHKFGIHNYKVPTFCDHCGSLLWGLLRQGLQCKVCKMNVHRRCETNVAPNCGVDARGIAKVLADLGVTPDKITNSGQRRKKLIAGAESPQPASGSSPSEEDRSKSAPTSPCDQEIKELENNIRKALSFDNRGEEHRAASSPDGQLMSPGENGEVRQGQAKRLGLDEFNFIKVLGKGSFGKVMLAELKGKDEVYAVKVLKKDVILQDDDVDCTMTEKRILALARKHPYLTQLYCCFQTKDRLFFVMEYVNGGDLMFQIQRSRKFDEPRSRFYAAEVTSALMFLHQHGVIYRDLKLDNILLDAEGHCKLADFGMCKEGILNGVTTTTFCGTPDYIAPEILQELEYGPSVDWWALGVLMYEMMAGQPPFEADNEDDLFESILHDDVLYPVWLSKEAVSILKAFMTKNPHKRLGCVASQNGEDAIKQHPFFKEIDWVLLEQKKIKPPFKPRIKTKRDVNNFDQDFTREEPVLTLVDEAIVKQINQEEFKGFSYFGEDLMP
As to the method: (§1) The analysis was performed by ProQinase (Freiburg, Germany).

In assay [2] the target is T2, CDK2/CycA2 (Homo sapiens, UniProt P24941).
T2 construct: purchased ProQinase (Freiburg, Germany)
The method, then: as §1

The target in assay [3] is T3, TTBK1 (Homo sapiens, UniProt Q5TCY1).
T3 construct: purchased ProQinase (Freiburg, Germany)
T3 sequence (Q5TCY1 whole entry): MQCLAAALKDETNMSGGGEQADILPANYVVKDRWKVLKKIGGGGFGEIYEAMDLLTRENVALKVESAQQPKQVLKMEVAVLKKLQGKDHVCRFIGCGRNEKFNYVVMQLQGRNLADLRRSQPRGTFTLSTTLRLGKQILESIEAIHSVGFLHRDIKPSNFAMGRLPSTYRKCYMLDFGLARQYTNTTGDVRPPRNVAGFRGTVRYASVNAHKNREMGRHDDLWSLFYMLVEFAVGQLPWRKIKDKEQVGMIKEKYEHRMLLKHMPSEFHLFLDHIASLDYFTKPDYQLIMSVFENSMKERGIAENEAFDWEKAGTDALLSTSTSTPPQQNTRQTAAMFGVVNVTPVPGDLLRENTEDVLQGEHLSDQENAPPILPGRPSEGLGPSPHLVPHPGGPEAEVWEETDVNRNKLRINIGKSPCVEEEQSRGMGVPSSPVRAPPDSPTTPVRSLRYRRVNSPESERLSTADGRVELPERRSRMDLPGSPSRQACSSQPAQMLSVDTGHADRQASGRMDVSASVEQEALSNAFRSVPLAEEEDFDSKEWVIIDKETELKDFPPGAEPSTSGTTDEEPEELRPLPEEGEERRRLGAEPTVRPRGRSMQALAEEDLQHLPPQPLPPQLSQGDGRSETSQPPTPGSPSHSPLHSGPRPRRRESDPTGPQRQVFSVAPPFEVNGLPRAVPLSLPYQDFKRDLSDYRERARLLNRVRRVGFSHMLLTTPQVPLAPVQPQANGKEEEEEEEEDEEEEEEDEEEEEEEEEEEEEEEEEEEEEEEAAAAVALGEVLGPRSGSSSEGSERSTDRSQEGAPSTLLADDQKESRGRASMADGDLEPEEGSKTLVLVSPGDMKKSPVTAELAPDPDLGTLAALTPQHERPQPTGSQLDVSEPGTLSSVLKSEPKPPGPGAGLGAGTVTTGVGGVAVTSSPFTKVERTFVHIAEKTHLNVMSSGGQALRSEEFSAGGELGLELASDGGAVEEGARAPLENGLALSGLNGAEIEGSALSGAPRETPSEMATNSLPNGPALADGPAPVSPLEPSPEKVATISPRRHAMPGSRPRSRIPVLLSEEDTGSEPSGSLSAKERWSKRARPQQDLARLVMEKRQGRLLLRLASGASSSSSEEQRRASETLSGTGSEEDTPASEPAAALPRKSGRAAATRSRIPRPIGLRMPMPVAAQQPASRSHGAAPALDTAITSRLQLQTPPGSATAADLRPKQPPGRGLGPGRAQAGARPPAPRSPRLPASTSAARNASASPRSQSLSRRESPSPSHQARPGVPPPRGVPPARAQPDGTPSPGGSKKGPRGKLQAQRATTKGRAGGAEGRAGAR
The method, then:
as §1

Assay [4] deals with T4, CDK9/CycT1 (Homo sapiens, UniProt P50750).
T4 construct: purchased ProQinase (Freiburg, Germany)
T4 sequence (P50750 whole entry): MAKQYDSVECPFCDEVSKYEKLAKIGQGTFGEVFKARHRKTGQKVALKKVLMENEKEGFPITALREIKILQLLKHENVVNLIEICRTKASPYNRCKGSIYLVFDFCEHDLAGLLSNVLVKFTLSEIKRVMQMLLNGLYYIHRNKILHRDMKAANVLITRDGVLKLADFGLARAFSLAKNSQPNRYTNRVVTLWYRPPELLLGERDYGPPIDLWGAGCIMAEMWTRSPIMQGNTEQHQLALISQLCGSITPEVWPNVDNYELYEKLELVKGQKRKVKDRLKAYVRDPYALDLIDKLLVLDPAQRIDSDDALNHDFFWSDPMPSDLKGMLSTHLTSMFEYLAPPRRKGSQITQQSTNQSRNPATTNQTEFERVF
T4 sequence (O60563 whole entry partner): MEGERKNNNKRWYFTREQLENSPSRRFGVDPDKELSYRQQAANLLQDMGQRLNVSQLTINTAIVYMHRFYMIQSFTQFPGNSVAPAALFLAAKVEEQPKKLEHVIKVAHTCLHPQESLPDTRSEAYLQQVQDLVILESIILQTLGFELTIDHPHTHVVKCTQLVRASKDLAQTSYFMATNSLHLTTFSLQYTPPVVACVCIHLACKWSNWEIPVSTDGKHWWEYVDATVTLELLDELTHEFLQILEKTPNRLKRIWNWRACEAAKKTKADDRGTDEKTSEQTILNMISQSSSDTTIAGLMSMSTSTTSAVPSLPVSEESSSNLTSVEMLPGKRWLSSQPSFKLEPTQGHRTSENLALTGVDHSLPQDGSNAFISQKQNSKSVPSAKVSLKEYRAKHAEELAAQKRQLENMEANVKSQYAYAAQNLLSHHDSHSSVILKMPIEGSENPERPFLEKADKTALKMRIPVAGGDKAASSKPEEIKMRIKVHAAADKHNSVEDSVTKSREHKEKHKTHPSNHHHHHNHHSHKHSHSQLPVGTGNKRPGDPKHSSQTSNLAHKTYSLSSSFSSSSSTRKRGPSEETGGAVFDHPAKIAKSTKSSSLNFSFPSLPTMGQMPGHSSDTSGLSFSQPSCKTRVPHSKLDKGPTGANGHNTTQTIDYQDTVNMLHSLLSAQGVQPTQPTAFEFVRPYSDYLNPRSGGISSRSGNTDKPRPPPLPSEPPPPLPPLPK
The method, then:
as §1

In assay [5] the target is T5, MELK (Homo sapiens, UniProt Q14680).
T5 construct: purchased ProQinase (Freiburg, Germany)
T5 sequence (Q14680 whole entry): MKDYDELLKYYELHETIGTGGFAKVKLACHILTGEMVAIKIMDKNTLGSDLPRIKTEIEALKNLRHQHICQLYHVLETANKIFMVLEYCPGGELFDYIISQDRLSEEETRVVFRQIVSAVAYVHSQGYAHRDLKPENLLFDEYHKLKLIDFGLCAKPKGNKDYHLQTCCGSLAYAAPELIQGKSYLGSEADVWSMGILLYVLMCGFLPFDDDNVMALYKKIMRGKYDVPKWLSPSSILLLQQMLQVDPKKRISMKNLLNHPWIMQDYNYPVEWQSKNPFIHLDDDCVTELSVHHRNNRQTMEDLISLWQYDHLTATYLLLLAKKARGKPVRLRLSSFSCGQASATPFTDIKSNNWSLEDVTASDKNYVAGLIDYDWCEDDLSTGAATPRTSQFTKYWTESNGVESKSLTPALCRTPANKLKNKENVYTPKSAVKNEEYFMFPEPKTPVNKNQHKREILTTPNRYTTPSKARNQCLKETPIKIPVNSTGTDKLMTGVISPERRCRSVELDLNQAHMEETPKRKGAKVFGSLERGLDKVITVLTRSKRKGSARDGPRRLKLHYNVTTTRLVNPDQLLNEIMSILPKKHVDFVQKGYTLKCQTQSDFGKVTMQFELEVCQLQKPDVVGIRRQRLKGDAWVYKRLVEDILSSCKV
As to the method: as §1

In assay [6] the target is T6, ARK5 (Homo sapiens, UniProt O60285).
T6 construct: purchased ProQinase (Freiburg, Germany)
T6 sequence (O60285 1-661): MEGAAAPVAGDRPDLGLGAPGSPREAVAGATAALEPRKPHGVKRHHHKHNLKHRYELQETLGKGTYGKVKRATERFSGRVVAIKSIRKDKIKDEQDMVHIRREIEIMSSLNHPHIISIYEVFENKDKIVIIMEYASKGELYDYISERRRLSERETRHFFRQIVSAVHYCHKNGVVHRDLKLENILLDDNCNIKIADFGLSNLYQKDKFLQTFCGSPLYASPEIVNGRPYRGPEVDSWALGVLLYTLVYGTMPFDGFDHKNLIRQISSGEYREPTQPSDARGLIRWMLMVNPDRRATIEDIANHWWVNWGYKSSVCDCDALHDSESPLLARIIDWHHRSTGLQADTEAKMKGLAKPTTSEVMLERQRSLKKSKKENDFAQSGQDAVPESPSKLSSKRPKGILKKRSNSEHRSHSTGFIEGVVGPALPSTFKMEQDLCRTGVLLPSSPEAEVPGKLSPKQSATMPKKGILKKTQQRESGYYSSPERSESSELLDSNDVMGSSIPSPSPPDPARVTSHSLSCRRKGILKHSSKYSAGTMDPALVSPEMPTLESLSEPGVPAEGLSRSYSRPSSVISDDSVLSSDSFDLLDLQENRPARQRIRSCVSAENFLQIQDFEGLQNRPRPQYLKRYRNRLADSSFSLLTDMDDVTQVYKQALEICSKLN
The method, then:
as §1

For assay [7], the target named is T7, SAK (Homo sapiens, UniProt O00444).
T7 construct: purchased ProQinase (Freiburg, Germany)
T7 sequence (O00444 1-970): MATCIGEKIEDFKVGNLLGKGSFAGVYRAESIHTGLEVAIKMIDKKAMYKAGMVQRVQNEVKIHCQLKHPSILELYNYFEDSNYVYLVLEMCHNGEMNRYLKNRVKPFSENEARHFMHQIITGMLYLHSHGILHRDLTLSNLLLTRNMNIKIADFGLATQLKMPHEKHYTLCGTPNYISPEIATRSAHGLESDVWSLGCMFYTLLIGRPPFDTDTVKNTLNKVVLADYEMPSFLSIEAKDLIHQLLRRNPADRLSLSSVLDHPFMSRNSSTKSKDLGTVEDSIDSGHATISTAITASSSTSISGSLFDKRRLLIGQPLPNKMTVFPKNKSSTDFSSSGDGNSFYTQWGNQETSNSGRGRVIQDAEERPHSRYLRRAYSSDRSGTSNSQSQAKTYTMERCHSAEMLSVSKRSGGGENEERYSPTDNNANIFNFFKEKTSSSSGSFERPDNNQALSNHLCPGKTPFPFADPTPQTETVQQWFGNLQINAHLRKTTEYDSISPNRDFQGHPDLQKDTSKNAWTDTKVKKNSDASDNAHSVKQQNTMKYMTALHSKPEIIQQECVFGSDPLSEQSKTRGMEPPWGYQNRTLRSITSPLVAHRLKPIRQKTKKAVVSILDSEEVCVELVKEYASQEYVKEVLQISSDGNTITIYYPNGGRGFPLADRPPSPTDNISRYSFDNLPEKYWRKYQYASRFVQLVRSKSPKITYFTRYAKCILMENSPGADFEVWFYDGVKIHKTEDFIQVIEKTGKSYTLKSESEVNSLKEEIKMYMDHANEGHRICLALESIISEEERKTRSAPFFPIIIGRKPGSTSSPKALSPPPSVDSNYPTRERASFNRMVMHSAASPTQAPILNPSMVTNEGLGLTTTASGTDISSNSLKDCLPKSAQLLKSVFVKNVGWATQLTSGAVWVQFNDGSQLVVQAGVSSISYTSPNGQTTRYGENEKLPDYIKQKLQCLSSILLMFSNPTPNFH
As to the method: as §1

The target in assay [8] is T8, VEGFR2 (Homo sapiens, UniProt P35968).
T8 construct: purchased ProQinase (Freiburg, Germany)
T8 sequence (P35968 20-1356): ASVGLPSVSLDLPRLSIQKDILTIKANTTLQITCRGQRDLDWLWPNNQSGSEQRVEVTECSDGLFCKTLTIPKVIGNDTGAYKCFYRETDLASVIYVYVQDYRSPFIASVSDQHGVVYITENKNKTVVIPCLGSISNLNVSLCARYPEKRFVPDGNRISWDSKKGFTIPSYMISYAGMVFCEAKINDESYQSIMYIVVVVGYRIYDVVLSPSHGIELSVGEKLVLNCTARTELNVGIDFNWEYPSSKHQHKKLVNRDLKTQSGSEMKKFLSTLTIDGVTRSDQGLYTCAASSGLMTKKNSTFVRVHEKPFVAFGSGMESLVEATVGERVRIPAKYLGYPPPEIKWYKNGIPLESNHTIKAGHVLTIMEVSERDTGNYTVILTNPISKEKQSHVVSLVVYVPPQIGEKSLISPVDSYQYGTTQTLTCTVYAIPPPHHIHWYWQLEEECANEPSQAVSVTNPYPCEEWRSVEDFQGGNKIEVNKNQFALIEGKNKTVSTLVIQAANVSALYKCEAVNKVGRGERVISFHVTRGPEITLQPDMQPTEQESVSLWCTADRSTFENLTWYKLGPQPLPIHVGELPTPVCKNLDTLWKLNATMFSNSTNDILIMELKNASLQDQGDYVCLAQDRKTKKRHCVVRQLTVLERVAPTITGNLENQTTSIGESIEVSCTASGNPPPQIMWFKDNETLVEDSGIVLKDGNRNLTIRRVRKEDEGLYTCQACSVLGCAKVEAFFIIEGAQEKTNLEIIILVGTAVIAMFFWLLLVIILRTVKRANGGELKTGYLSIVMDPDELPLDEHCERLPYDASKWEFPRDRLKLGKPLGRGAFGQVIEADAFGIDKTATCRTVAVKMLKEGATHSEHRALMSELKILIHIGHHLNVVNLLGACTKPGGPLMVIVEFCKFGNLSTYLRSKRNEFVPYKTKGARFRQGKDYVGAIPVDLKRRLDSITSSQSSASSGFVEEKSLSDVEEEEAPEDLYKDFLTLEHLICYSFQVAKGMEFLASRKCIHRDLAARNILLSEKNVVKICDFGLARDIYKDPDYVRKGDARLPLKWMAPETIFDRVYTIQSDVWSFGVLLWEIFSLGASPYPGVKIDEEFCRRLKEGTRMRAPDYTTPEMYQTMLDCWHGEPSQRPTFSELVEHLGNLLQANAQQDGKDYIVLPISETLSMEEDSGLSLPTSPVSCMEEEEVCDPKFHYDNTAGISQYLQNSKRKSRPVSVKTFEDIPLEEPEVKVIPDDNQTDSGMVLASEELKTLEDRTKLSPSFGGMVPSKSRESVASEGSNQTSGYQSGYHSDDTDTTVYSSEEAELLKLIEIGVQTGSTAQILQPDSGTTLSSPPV
The method, then:
as §1

Assay [9] addresses T9, SIK3 (Homo sapiens, UniProt Q9Y2K2).
T9 construct: purchased ProQinase (Freiburg, Germany)
The method, then:
as §1

As for `O=C(Nc1ccc(F)c(Nc2ccc3c(c2)CCCCC3=O)c1)c1cccc(F)c1` [Compound 109], the Residual activity is 103 % of control in assay [1] (1.0E-05 M); 104 % of control in assay [1] (1.0E-06 M); 94 % of control in assay [2] (1.0E-05 M); 83 % of control in assay [2] (1.0E-06 M); 115 % of control in [3] (1.0E-05 M); 101 % of control in assay [3] (1.0E-06 M). The Residual activity in assay [4] (1.0E-05 M) is reported as 93 % of control; in [4] (1.0E-06 M), 92 % of control; in assay [5] (1.0E-05 M), 90 % of control; in [5] (1.0E-06 M), 107 % of control; in [6] (1.0E-05 M) it was 88 % of control; in assay [6] (1.0E-06 M), 92 % of control. Also, the Residual activity is 71 % of control in [7] (1.0E-05 M); 89 % of control in assay [7] (1.0E-06 M); 79 % of control in assay [8] (1.0E-05 M); 84 % of control in assay [8] (1.0E-06 M); 99 % of control in assay [9] (1.0E-05 M); 96 % of control in [9] (1.0E-06 M).
For `O=C(Cc1ccccc1)Nc1ccc(F)c(Nc2ccc3c(c2)CCCCC3=O)c1` [Compound 100], the Residual activity in [1] (1.0E-05 M) is 107 % of control; in assay [1] (1.0E-06 M), 107 % of control; in [2] (1.0E-05 M) it was 106 % of control; in assay [2] (1.0E-06 M), 87 % of control; in assay [3] (1.0E-05 M), 126 % of control; in assay [3] (1.0E-06 M), 108 % of control. The Residual activity in [4] (1.0E-05 M) is 89 % of control; in [4] (1.0E-06 M) it was 95 % of control; in assay [5] (1.0E-05 M), 90 % of control; in [5] (1.0E-06 M), 93 % of control; in [6] (1.0E-05 M) it was 91 % of control; in [6] (1.0E-06 M), 90 % of control. For the same molecule, the Residual activity in [7] (1.0E-05 M) is listed as 81 % of control; in [7] (1.0E-06 M), 92 % of control; in assay [8] (1.0E-05 M) it was 77 % of control; in [8] (1.0E-06 M) it was 98 % of control; in assay [9] (1.0E-05 M), 87 % of control; in [9] (1.0E-06 M) it was 95 % of control.
